We go through 19 compounds from patent US11793815B2, “Oxindoles and methods of use thereof” (ALIGOS THERAPEUTICS, INC., priority 2020, dated 2023).

By EC50 is commonly meant the concentration giving half of the maximal effect.

The assay deals with T1, human thyroid receptor beta ligand-binding domain (LBD) (Homo sapiens, UniProt P10828).
T1 construct: Thyroid receptor beta LBD was added to the plate at a final concentration of 1 nM; purchased Invitrogen
T1 sequence (P10828 217-461 limits assumed): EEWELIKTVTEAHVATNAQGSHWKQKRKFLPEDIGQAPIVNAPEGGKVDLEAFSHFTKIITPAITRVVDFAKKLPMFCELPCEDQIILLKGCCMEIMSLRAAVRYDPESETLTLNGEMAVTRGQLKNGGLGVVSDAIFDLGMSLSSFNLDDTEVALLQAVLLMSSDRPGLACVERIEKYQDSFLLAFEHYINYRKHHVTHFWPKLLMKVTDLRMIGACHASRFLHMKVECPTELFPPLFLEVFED
Put plainly: THR Biochemical Assay (Assay 1): TR-FRET thyroid receptor beta coactivator assay. The note with it: GST-tagged thyroid receptor beta LBD 1 nM, fluorescein SRC2-2 coactivator peptide 200 nM, 1 hr at rt, TR-FRET ratio 520:495; read-out: Assay 1 (EC50, THR-beta agonist). The source says:
THR Biochemical Assay (Assay 1)
The TR-FRET thyroid receptor beta coactivator assay was used with slight, optimized modifications of the manufacturer's protocol (Invitrogen). The assay uses a terbium-labeled anti-GST antibody, a glutathione-S-transferase (GST) tagged human thyroid receptor, beta or alpha, ligand-binding domain (LBD), and a fluorescein labeled SRC2-2 coactivator peptide. The antibody interacts with the LBD, where the agonist also binds, resulting in increased affinity for the SRC2-2 coactivator peptide causing energy transfer […] the acceptor fluorophore and a FRET emission shift from 495 to 520 nm. The energy transfer was detected as an increase in the fluorescence emission of the fluorescein acceptor, and a decrease in the fluorescence emission of the terbium donor. The assay was performed in a 384-well black plate in a final volume of 20 μL. Serial dilution of various test agonists was performed in DMSO (1% final DMSO concentration) and added to the test plate. Thyroid receptor beta LBD was added to the plate at a final concentration of 1 nM, followed by the mixture of the fluorescein labeled SRC2-2 coactivator peptide, and the terbium-labeled anti-GST antibody at final concentrations of 200 nM and 2 nM respectively. The assay was incubated for 1 hr at rt protected from light. The TR-FRET was then measured on a Victor multilabel reader (Perkin Elmer) using an excitation wavelength of 340 nm with emission filters of 495 nm and 520 nm. The assay was quantified by expressing a ratio (520:495) of the intensities, and the resulting activation curves; EC50 values were generated using a sigmoidal dose response (variable slope) equation in GraphPad™ Prism 8.0.

Bounds are passed on as bounds.

As for `O=C(O)C(=O)Nc1cc(Cl)c(Oc2ccc3c(c2)C2(CCC2)C(=O)N3)c(Cl)c1` [Compound 13, 2-((3,5-dichloro-4-((2′-oxospiro[cyclobutane-1,3′-indolin]-5′-yl)oxy)phenyl)amino)-2-oxoacetic acid], the 50% effective concentration (EC50) is under 50 nM.
As to `Cc1cc(OCC(=O)O)c(C)c(C)c1Cc1ccc2c(n1)C(C)(C)C(=O)N2` [Compound 1, 4-([3,3-dimethyl-2-oxo-1H-pyrrolo[3,2-b]pyridin-5-yl]methyl)-2,3,5-trimethylphenoxyacetic acid], the EC50 lay in the range of 50 to 250 nM.
Consider `Cn1nc(-c2cc(Cl)c(Oc3ccc4c(c3)C3(CCC3)C(=O)N4)c(Cl)c2)c(=O)[nH]c1=O` [Compound 16, 6-(3,5-dichloro-4-((2′-oxospiro[cyclobutane-1,3′-indolin]-5′-yl)oxy)phenyl)-2-methyl-1,2,4-triazine-3,5(2H,4H)-dione], for which the concentration for a half-maximal effect (EC50) was under 50 nM.
Regarding `Nc1nn(-c2cc(Cl)c(Oc3cnc4c(c3)C3(CC3)C(=O)N4)c(Cl)c2)c(=O)[nH]c1=O` [Compound 45, 6-amino-2-(3,5-dichloro-4-((2′-oxo-1′,2′-dihydrospiro[cyclopropane-1,3′-pyrrolo[2,3-b]pyridin]-5′-yl)oxy)phenyl)-1,2,4-triazine-3,5(2H,4H)-dione], the EC50 was 250 to 1000 nM.
The figure for `O=C1Nc2ccc(Oc3c(Cl)cc(-c4n[nH]c(=O)[nH]c4=O)cc3Cl)cc2C12CCC2` [Compound 15, 6-(3,5-dichloro-4-((2′-oxospiro[cyclobutane-1,3′-indolin]-5′-yl)oxy)phenyl)-1,2,4-triazine-3,5(2H,4H)-dione] is under 50 nM; for `Cc1c(Oc2c(Cl)cc(-n3nc(N)c(=O)[nH]c3=O)cc2Cl)ccc2c1C1(CC1)C(=O)N2` [Compound 38, 6-amino-2-(3,5-dichloro-4-((4′-methyl-2′-oxospiro[cyclopropane-1,3′-indolin]-5′-yl)oxy)phenyl)-1,2,4-triazine-3,5(2H,4H)-dione] it is under 50 nM; for `O=C(Nc1cc(Cl)c(Oc2ccc3c(c2F)C2(CC2)C(=O)N3)c(Cl)c1)c1noc(=O)[nH]1` [Compound 40, N-(3,5-dichloro-4-((4′-fluoro-2′-oxospiro[cyclopropane-1,3′-indolin]-5′-yl)oxy)phenyl)-5-oxo-4,5-dihydro-1,2,4-oxadiazole-3-carboxamide] it is under 50 nM.
In the case of `O=C(Nc1cc(Cl)c(Oc2ccc3c(c2)C2(CC2)C(=O)N3)c(Cl)c1)c1noc(=O)[nH]1` [Compound 22, N-(3,5-dichloro-4-((2′-oxospiro[cyclopropane-1,3′-indolin]-5′-yl)oxy)phenyl)-5-oxo-4,5-dihydro-1,2,4-oxadiazole-3-carboxamide], the EC50 is under 50 nM.
As to `Nc1nn(-c2cc(Cl)c(Oc3ccc4c(c3F)C3(CC3)C(=O)N4)c(Cl)c2)c(=O)[nH]c1=O` [Compound 41, 6-amino-2-(3,5-dichloro-4-((4′-fluoro-2′-oxospiro[cyclopropane-1,3′-indolin]-5′-yl)oxy)phenyl)-1,2,4-triazine-3,5(2H,4H)-dione], the EC50 was under 50 nM.
As to `Cc1cc(-n2nc(C#N)c(=O)[nH]c2=O)cc(C)c1Oc1ccc2c(c1)C1(CC1)C(=O)N2` [Compound 2, 2-(3,5-dimethyl-4-((2′-oxospiro[cyclopropane-1,3′-indolin]-5′-yl)oxy)phenyl)-3,5-dioxo-2,3,4,5-tetrahydro-1,2,4-triazine-6-carbonitrile], the EC50 is under 50 nM.
Turning to `Cn1nc(-c2cc(Cl)c(Oc3ccc4c(c3F)C3(CC3)C(=O)N4)c(Cl)c2)c(=O)[nH]c1=O` [Compound 42, 6-(3,5-dichloro-4-((4′-fluoro-2′-oxospiro[cyclopropane-1,3′-indolin]-5′-yl)oxy)phenyl)-2-methyl-1,2,4-triazine-3,5(2H,4H)-dione], the EC50 is under 50 nM.
Regarding `Cc1cc(-n2nc(N)c(=O)[nH]c2=O)cc(C)c1Oc1ccc2c(c1)C1(CCCC1)C(=O)N2` [Compound 28, 6-amino-2-(3,5-dimethyl-4-((2′-oxospiro[cyclopentane-1,3′-indolin]-5′-yl)oxy)phenyl)-1,2,4-triazine-3,5(2H,4H)-dione], the EC50 was under 50 nM.
The figure for `Nc1nn(-c2cc(Cl)c(Oc3ccc4c(c3F)C3(CCC3)C(=O)N4)c(Cl)c2)c(=O)[nH]c1=O` [Compound 17, 6-amino-2-(3,5-dichloro-4-((4′-fluoro-2′-oxospiro[cyclobutane-1,3′-indolin]-5′-yl)oxy)phenyl)-1,2,4-triazine-3,5(2H,4H)-dione] is under 50 nM.
Turning to `CN1C(=O)C2(CC2)c2cc(Oc3c(Cl)cc(-n4nc(N)c(=O)[nH]c4=O)cc3Cl)ccc21` [Compound 26, 6-amino-2-(3,5-dichloro-4-((1′-methyl-2′-oxospiro[cyclopropane-1,3′-indolin]-5′-yl)oxy)phenyl)-1,2,4-triazine-3,5(2H,4H)-dione], the EC50 is over 25000 nM.
`Cc1cc(-n2nc(C#N)c(=O)[nH]c2=O)cc(C)c1Cc1ccc2c(c1)C1(CC(F)(F)C1)C(=O)N2` [Compound 7, 2-(4-((3,3-difluoro-2′-oxospiro[cyclobutane-1,3′-indolin]-5′-yl)methyl)-3,5-dimethylphenyl)-3,5-dioxo-2,3,4,5-tetrahydro-1,2,4-triazine-6-carbonitrile]: the EC50 is over 25000 nM.
Consider `O=C1Nc2ccc(Oc3c(Cl)cc(-n4ncc(=O)[nH]c4=O)cc3Cl)cc2C12CCC2` [Compound 5, 2-(3,5-dichloro-4-((2′-oxospiro[cyclobutane-1,3′-indolin]-5′-yl)oxy)phenyl)-1,2,4-triazine-3,5(2H,4H)-dione], for which the EC50 is under 50 nM.
Take `Cc1cc(Oc2c(Cl)cc(-n3nc(N)c(=O)[nH]c3=O)cc2Cl)cc2c1NC(=O)C21CCC1` [Compound 27, 6-amino-2-(3,5-dichloro-4-((7′-methyl-2′-oxospiro[cyclobutane-1,3′-indolin]-5′-yl)oxy)phenyl)-1,2,4-triazine-3,5(2H,4H)-dione]: the EC50 was under 50 nM.
On to `O=C(Nc1cc(Cl)c(Oc2ccc3c(c2)C2(CCC2)C(=O)N3)c(Cl)c1)c1noc(=O)[nH]1` [Compound 14, N-(3,5-dichloro-4-((2′-oxospiro[cyclobutane-1,3′-indolin]-5′-yl)oxy)phenyl)-5-oxo-4,5-dihydro-1,2,4-oxadiazole-3-carboxamide], for which the EC50 was under 50 nM.
Consider `Nc1nn(-c2cc(Cl)c(Oc3cc(F)c4c(c3)C3(CCC3)C(=O)N4)c(Cl)c2)c(=O)[nH]c1=O` [Compound 21, 6-amino-2-(3,5-dichloro-4-((7′-fluoro-2′-oxospiro[cyclobutane-1,3′-indolin]-5′-yl)oxy)phenyl)-1,2,4-triazine-3,5(2H,4H)-dione], for which the EC50 was under 50 nM.
